These results are taken from patent US8338411B2, “Compounds” (Sanofi, priority 2007, dated 2012).

Data set [1] addresses T1, human adenosine A3 receptor (Homo sapiens, UniProt P0DMS8).
T1 construct: host or cells: CHO cells (CHO-hA3), membrane preparation
T1 sequence (P0DMS8 1-318): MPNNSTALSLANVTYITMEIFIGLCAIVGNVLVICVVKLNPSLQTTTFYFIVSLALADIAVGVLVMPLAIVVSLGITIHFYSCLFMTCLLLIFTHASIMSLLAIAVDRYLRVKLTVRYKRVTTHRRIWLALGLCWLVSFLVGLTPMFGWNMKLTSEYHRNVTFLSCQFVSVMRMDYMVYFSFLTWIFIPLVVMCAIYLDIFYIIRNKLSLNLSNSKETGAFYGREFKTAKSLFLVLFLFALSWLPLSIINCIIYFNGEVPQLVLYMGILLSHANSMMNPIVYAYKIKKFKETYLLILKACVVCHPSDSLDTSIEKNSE
The data set is described as follows: Human adenosine A3 receptor binding ([125I]AB-MECA, CHO-hA3 membranes). The conditions noted are these: CHO-hA3 membrane, 0.5 nM [125I]AB-MECA. As to the method: Human Adenosine A3 Receptor Binding
Preparing membrane suspension: ovarium cells of cloned […] hamster expressing human A3 receptor (further: CHO-hA3) are appropriately cultured. Achieving confluent cell layer, the cultivating liquid is removed from the cells by washing them with 37° C. PBS, then the cell are suspended in ice cold PBS, washed 3 times with PBS, centrifuged (1000×g 10 minutes) (Sigma 3K30) and homogenated using teflon homogenizer (B. Braun Potter S) at 1500/min rotation speed, for 15 sec. in the following buffer: 50 mM Tris, 10 mM MgCl2, 1 mM EDTA, pH 8.0. The homogenate is centrifuged (43.000 g, 10 min). The precipitate is suspended in the above buffer, protein concentration 0.1 mg/ml (Bradford method). Aliquots of the membrane preparatum are store at −80° C. hA3-CHO membrane preparation from Perkin Elmer was used alternatively.
Binding protocol: incubate CHO-hA3 membrane preparation (2 μg protein content) in the presence of the test material and 0.5 nM [^125I]AB-MECA (4-amino-3-iodo-benzyl-5′-N-methylcarboxamide-adenosine) (100.000 cpm) in incubation buffer (50 mM Tris, 10 mM MgCl2, 1 mM EDTA, 3 U/mL adenosine deaminase, pH 8.0). Define the non-specific radioligand binding in the presence of 100 μM R-PIA (N^6[L-2-phenylisopropyl]adenosine). Total volume of the reaction is 50 μL for 60 min at room temperature. […] Detect the radioactivity in gamma-counter (1470 Wizard, Wallac). […]
Based on the radioisotope saturation curves using Scatchard analysis (G. Scatchard, Ann. N.Y. Acad. Sci. 51:660, 1949) the dissociation constant (Kd) of the radioligand [^125I]AB-MECA on the CHO-hA3 membrane preparate is determined. From the Kd values, applying the Cheng-Prusoff equation (Y. J. Cheng and W. H. Prusoff, Biochem. Pharmacol. 22:3099, 1973) the affinity constants (Ki) of the test compounds are calculated from their IC50 values.

A short description of another data set: Solubility. The class given is physicochemical.
Data set [2] relates to Ovalbumin induced cell migration. As to the kind of experiment: Allergic mouse model (ovalbumin induced cell migration). The class given is in vivo. The settings on record: % inhibition (full), p.o. mice 24 h, 10 mg/kg CMC. On the procedure:
Male BalbC mice of 20-25 g body weight are used for the experiments. The animals are first allergized with ovalbumin, then three weeks after the first ovalbumin injection they are involved into the experiment. On the day of the experiment the mice are treated (per os) with the experimental material (or with the vehicle containing no active ingredient), then after a suitable waiting period they are narcotized. After surgical opening of the trachea, 10 microliter of 1% ovalbumin solution is injected into the trachea.
The control group receives vehicle (physiological salt solution) into the trachea. After surgical closing of the trachea and treatment of the wound, the animals are separated and kept under their usual life conditions for 24 h.
After 24 hours the animals are over narcotized, the trachea is opened again and the lung is washed with buffer solution. The buffer solution is centrifuged, the cell sediment is resuspended again, and then the cells are counted. The total cell number is determined and the different leukocytes are sorted on the bases of the morphology. To determine the effectivity of the experimental material, the inhibition % is calculated in comparison to the control group. To determine the significance of the effect, statistical evaluation is carried out.

≈ marks a conversion by molar mass, not a printed value.

`COc1cccc(-c2nc3c(C#N)c(NCc4ccccc4)c4cc(N5CCOCC5)ccc4n3n2)c1` [Example 1, 2-(3-methoxyphenyl)-7-(morpholin-4-yl)-9-benzylamino-10-cyano-s-triazolo[1,5-a]quinoline] had an IC50 in data set [1] of 38 nM. In addition, the solubility in “Solubility” (pH 1, simulated gastric fluid) is 500 µg/mL (≈ 1020 µM); in “Solubility” (pH 6.5, aqueous buffer), 0.2 µg/mL (≈ 0.408 µM); in “Solubility” (pH 7.5, aqueous buffer), 2 µg/mL (≈ 4.08 µM). The “Inhibition of cell migration” value in data set [2] came to 81%.
On the same counts, the results for `CN1CCN(c2ccc3c(c2)c(NCc2ccccc2)c(C#N)c2nc(-c4ccccc4)nn23)CC1` [Example 17] are 7.7 nM, 3000 µg/mL (≈ 6330 µM), 0.5 µg/mL (≈ 1.06 µM), 5 µg/mL (≈ 10.6 µM) and 88%.
In data set [1], `CN1CCN(c2ccc3c(c2)c(NCc2ccccc2)c(C#N)c2nc(-c4ccc(F)cc4)nn23)CC1` [Example 18] gave a concentration for half-maximal inhibition (IC50) of 11 nM. Besides, the solubility is 2500 µg/mL (≈ 5090 µM) in the data set “Solubility” (pH 1, simulated gastric fluid); 0.5 µg/mL (≈ 1.02 µM) in the data set “Solubility” (pH 6.5, aqueous buffer); 13 µg/mL (≈ 26.4 µM) in the data set “Solubility” (pH 7.5, aqueous buffer). In addition, the “Inhibition of cell migration” value in data set [2] came to 57%.
